Drawing on PMC10692375 (Acta Pharmaceutica Sinica. B, 2023), this text covers tumor growth for one compound.

The assay deals with 22Rv1 xenografts. The assay can be described thus: 22Rv1 xenograft model. In kind it is in vivo, mice. The note with it: DD1-Br 0.1 mg/kg i.p., ENZ 10 mg/kg p.o., alone or combined, 5 times a week.

Structures are written as SMILES.

As to `CNC(=O)c1ccc(N2C(=S)N(c3ccc(C#N)c(C(F)(F)F)c3)C(=O)C2(C)C)cc1F` [ENZ, enzalutamide], the tumor growth entry was “did not show significant effect”.
